Laboratory results taken from PMC6271697, “Anticancer Activities of Polyynes from the Root Bark of Oplopanax horridus and Their Acetylated Derivatives” (Molecules, 2014).

Legend:
Assay type in all cases: cell-based, human
A549 cells = test: MTT cell viability assay, A549 cells; settings: MTT, 24 h incubation; read-out: IC50 A549
Description: (§1) The human breast cancer cell lines MCF-7, MDA-MB-231, human hepatocellular liver cell line HepG2 and human lung carcinoma epithelial cells A549 were purchased from American Type Culture Collection (ATCC, Manassas, VA, USA). Normal human hepatic LO2 cells were obtained from the Institute of Cell Biology, Academic Sinica (Shanghai, China). The cells were grown in an atmosphere of 5% CO2 at 37 °C in RPMI 1640 medium supplemented with 10% fetal bovine serum, 100 U/mL penicillin and […] streptomycin.
(§2) The viability of cells was measured by a colorimetric MTT assay. Briefly, 1 × 10^4 cells/well in 96-well microplates were exposed to different concentration of polyynes and their acetylated derivatives respectively for 24 h incubation, following addition of 20 μL MTT solution (4 mg/mL) to each well for another 4 h incubation at 37 °C. Finally, the medium was removed and replaced with 100 μL dimethyl sulfoxide which was added to dissolve the dye crystal presented in cells. The absorbance was recorded at 570 nm using a microplate reader (1420 Multilabel counter victor^3, Perkin-Elmer, Waltham, MA, USA). The results were expressed as ratio of absorbance between treatments and control cells (solvent vehicle set at 100%). Four replicate wells were tested per assay which was repeated three times.

MDA-MB-231 cells [1] = test: MTT cell viability assay, MDA-MB-231 cells; settings: MTT, 24 h incubation; read-out: IC50 MDA-MB-231
Description: as §1, §2

MDA-MB-231 cells [2] = test: JC-1 mitochondrial membrane potential; settings: high concentration (OHR-1 15 μM, OHR-2 5 μM, OHR-3 10 μM, OHR-5 15 μM), 24 h
Description: The MDA-MB-231 cells were treated with OHR-1, -2, -3 and -5 for 24 h in a humidified atmosphere (37 °C with 5% CO2). The cells were collected and responded in 0.5 mL culture medium with JC-1 dye (1 μg/mL) for 20 min at 37 °C in dark. Fluorescence was monitored by both flow cytometry (BD Biosciences, San Jose, CA, USA) and fluorescence microscope. The Δψm were indicated by the rato of […] fluorescence intensity. The data were expressed as ratio of Δψm between treatments and control cells (solvent vehicle set at 100%).

MCF-7 cells = test: MTT cell viability assay, MCF-7 cells; settings: MTT, 24 h incubation; read-out: IC50 MCF-7
Description: as §1, §2

HepG2 cells = test: MTT cell viability assay, HepG2 cells; settings: MTT, 24 h incubation; read-out: IC50 HepG2
Description: as §1, §2

MDA-MB-231 cells [3] = test: Cell cycle analysis by PI staining and flow cytometry; settings: 24 h
Description: Cells were seeded in 6-well tissue culture plates and treated with DMSO control or different concentration of OHR-1, -2, -3 and -5 for 24 h. Then, the cells were harvested and fixed gently with cold 70% ethanol at −20 °C overnight. Finally, the cells were washed with PBS and re-suspended in 300 μL of propidium iodide (PI) stain solution (20 μg/mL PI and 8 μg/mL DNase-free RNase) for 20 min at room temperature in the dark. The cells were analyzed with a flow cytometry and Mod Fit LT 3.0 software (Variety Software House, Topsham, ME, USA). For each measurement, at least 20,000 cells were counted.

LO2 cells = test: MTT cell viability assay, normal hepatic LO2 cells; settings: normal human hepatic cells, MTT, 24 h incubation; read-out: IC50 LO2
Description: as §1, §2

MDA-MB-231 cells [4] = test: Hoechst 33342 staining for apoptosis; settings: OHR-1 15 μM, OHR-2 5 μM, OHR-3 10 μM, OHR-5 15 μM; 12 h
Description: MDA-MB-231 cells were seeded in the flat-bottomed 6-well plates and treated with OHR-1, -2, -3 and -5. Cells treated with solvent vehicle served as controls. In 12 h after treatment, cells were fixed in 4% polyoxymethylene solution for 30 min and then washed with PBS. The fixed cells were incubated with Hoechst 33342 for 15 min at room temperature in the dark and then washed with PBS twice, which were finally observed under a fluorescence microscope (Convert Fluorescence Microsope Axiovert 200, HAL 100, HBO 100, Carl Zeiss MicroImaging Co., Ltd., Oberkochen, Germany) at a magnification of ×400.

Which results are given for “(3S,8S,Z)-Heptadeca-9-en-4,6-diyne-3,8-diyl diacetate [OHR-1]”?
IC50 (A549 cells): > 300 µM; IC50 (MDA-MB-231 cells [1]): 13.9 ± 3.4 µM; effect on mitochondrial membrane potential Δψm (JC-1) (MDA-MB-231 cells [2]): decreasing the Δψm; IC50 (MCF-7 cells): > 300 µM; IC50 (HepG2 cells): 115 ± 17.1 µM; G2/M arrest rate at low concentration (MDA-MB-231 cells [3]; OHR-1 7.5 μM, OHR-2 2.5 μM, OHR-3 5 μM, OHR-5 7.5 μM): 24.6% ± 3.6%; G2/M arrest rate at high concentration (MDA-MB-231 cells [3]; OHR-1 15 μM, OHR-2 5 μM, OHR-3 10 μM, OHR-5 15 μM): 31.7% ± 3.2%; IC50 (LO2 cells): > 300 µM; induction of apoptosis (Hoechst staining) (MDA-MB-231 cells [4]): induce obvious apoptosis
